Assay results as given in patent publication US10564167B2, “Method for detecting cells” (FUNDACIÓ INSTITUT DE CIÈNCIES FOTÒNIQUES, priority 2014, dated 2020).

What was measured:
Assay type in all cases: cell-based
[1] = test system: human fibroblast nuclei (hFb); experiment: STORM super-resolution imaging of H2B nanodomains / nucleosome clutches in TSA-treated human fibroblasts
Experimental: (§1) Human fibroblasts (hFb) (BJ, Skin Fibroblast, American Type Culture Collection, ATCC® CRL-2522™) were cultured in DMEM supplemented with 10% FBS, 1× Non-essential AA, 1× GlutaMax and 1× penicillin/streptomycin. Human fibroblasts were treated with 300 nM of TSA (TricostatinA, Sigma-Aldrich) solution (TSA-hFbs) in complete growth medium for 24 hours before imaging experiments. Human fibroblasts expressing the Histone H2B-SNAP fusion protein were obtained after drug selection of nucleofected cells with the pSNAP-H2B Plasmid (N91795, New England BioLabs) using the Amaxa Human Dermal Fibroblast Nucleofector Kit (Lonza, VPD-1001).
For the imaging experiments, cells were plated on 8-well Lab-tek 1 coverglass chamber (Nunc) at a seeding density of 20,000-50,000 cells per well, fixed and permeabilized with Methanol-Ethanol (1:1) solution at −20° C. for 6 min or fixed with PFA 4% in PBS for 10 min and then permeabilized with 0.1% v/v Triton X-100 (SIGMA) in PBS for 10 min at room temperature. As the distribution of H2B was independent of the fixation and permeabilization protocols, Methanol-Ethanol (1:1) was preferred to minimize the handling of the sample. […]
For all H2B quantification experiments, primary rabbit polyclonal anti-H2B (ab1790) and the secondary donkey anti-rabbit labeled with Alexa Fluor 405-Alexa Fluor 647 (Invitrogen) pair dyes were used after in vitro characterization using mononucleosome, 12- and 24-nucleosome array labeling.
(§2) STORM imaging was carried out with a commercial STORM microscope system from Nikon Instruments (NSTORM). Laser light at 647 nm was used for exciting Alexa Fluor 647 (Invitrogen) and switching it to the dark state, and laser light at 405 nm was used for reactivating the Alexa Fluor 647 (Invitrogen) fluorescence via an activator dye (Alexa Fluor 405)—facilitated manner. […]

[2] = test system: H3 acetylation in human fibroblast cells; experiment: STORM imaging of H3 acetylation in human fibroblasts before and after TSA; details: hFbs, 300 nM TSA 24 hours, STORM images
Experimental: as §1
(§3) For the imaging experiments, cells were plated on 8-well Lab-tek 1 coverglass chamber (Nunc) at a seeding density of 20,000-50,000 cells per well, fixed and permeabilized with Methanol-Ethanol (1:1) solution at −20° C. for 6 min or fixed with PFA 4% in PBS for 10 min and then permeabilized with 0.1% v/v Triton X-100 (SIGMA) in PBS for 10 min at room temperature. […]
as §2

[3] = test system: human fibroblast nuclei (hFb); experiment: Multi-color STORM imaging of H2B and H1 co-localization in hFbs and TSA-hFbs; details: TSA-hFbs (hFbs 61±11%, p=0.028)
Experimental: as §1, §3, §2

## CC(/C=C/C(=O)NO)=C\[C@@H](C)C(=O)c1ccc(N(C)C)cc1 [TSA, Trichostatin A]
[1]; TSA-hFbs compared to hFbs, p<10^-3
  distributions of number of localizations per nanodomain, nanodomain areas and nanodomain nnds vs hFbs: shifted to lower values
[1]; TSA-hFbs, 300 nM TSA 24 hours (untreated hFbs ~25% higher)
  H2B nanodomain density in the nuclear periphery compared to the nuclear interior (enhancement): ~10%
[1]; hFbs treated with 300 nM TSA for 24 hours, converted from H2B localizations by in vitro calibration curve (untreated hFbs ~8)
  median number of nucleosomes per clutch: ~2 nucleosomes
[2]
  H3 acetylation after TSA treatment: large increase in H3 acetylation
[3]
  percentage of H2B co-localized with H1: 42±6%
